Values after ≈ are worked out from the molar mass of the structure shown. Like-named read-outs stand apart in the source and are kept apart here.
Tests used:
E. coli JW5503 kanS = assay: MIC against E. coli JW5503 parent strain; type: cell-based
Method: (§1) The determination of the MIC values was performed on five strains from the working collection of MSU. E. coli JW5503 [25], which lacked a kanamycin resistance cassette that had been removed as per the method outlined in [26], and a strain derived from this strain through in vitro selection with kanamycin. […] Strains containing AG-modifying enzymes were obtained through the transformation of E. coli JW5503 with plasmids that carried cassettes of resistance, namely pCRISPomyces-2–AAC(3)-IV (Addgene #61737), pdualrep2–APH(3′)-II [27] and pt67–ANT(3″). The MIC determination was performed as described for JW5503 in [19].

[1] = system: E. coli JW5503 EF-G P610T; assay: MIC against aminoglycoside-resistant EF-G mutant; type: cell-based
Method: as §1

E. coli JW5503 KanR = assay: MIC against transformant carrying APH(3′)-II; type: cell-based
Method: as §1

E. coli JW5503 SmR = assay: MIC against transformant carrying ANT(3″); type: cell-based
Method: as §1

E. coli JW5503 ApmR = assay: MIC against transformant carrying AAC(3)-IV; type: cell-based
Method: as §1

E. coli ATCC 25922 [2] = assay: MIC, broth microdilution; type: cell-based, Escherichia coli
Excerpt: (§2) The microbial strains used in this study were obtained from the collection of the Gause Institute of New Antibiotics. The control strains included in the analysis were S. aureus ATCC 29213, E. coli ATCC 25922, P. aeruginosa ATCC 27853, M. smegmatis ATCC 607. Clinical isolates E. coli MAR17-1350, K. pneumoniae APEX-5, K. pneumoniae MAR14-3395, and K. pneumoniae MAR18-1752 with multidrug resistance, including resistance to aminoglycosides were kindly provided by the Research Institute of Antimicrobial Chemotherapy (RIAC) of the Smolensk State Medical University, Smolensk. The microbial cultures were stored at −75 °C in trypticase soy broth (Becton, Dickinson, France) containing 10–15% glycerol. Storage was carried out in accordance with CLSI guidelines. Prior to experimentation, the bacterial strains were revived from cryopreservation by inoculating them onto trypticase soy agar (Becton, Dickinson, France) and incubating at (36 ± 1) °C for 16–24 h. Individual morphologically homogeneous colonies were then suspended in sterile physiological saline, and the turbidity of the suspension was adjusted to 0.5 McFarland units using a DEN-1 spectrophotometer (Biosan, Riga, Latvia), which corresponds to a concentration of 1.5 × 10^8 CFU/mL.
(§3) The samples were dissolved in sterile distilled water, depending on the physicochemical properties of the compounds under investigation, to a concentration of 10,000 µg/mL. Working solutions were then prepared by serial dilution, resulting in concentrations ranging from 64 µg/mL to 0.125 µg/mL.
(§4) Activity was evaluated by determining the minimum inhibitory concentration (MIC) values using the microdilution method in Mueller–Hinton Broth (Beckton and Dickinson, Le Pont-de-Claix, France), in accordance with the standard procedure for assessing the antimicrobial susceptibility of microorganisms.
(§5) The analysis was conducted in 96-well microtiter plates (Medpolymer, Saint Petersburg, Russia). The bacterial inoculum was introduced within 15 min of preparation. MIC values were determined after incubation for 15–18 h at (36 ± 1) °C. Microbial growth in the presence of the tested compounds was compared to the growth control (without exposure to the test samples). The MIC was defined as the lowest concentration at which visible microbial growth was inhibited.
(§6) To ensure the accuracy of the results, the control antibiotics kanamycin A, gentamycin, and tobramycin (Abcr GmbH, Karlsruhe, Germany) were included, along with standard reference strains: E. coli ATCC 25922. The MIC values for kanamycin A were determined as follows: E. coli ATCC 25922—1–4 µg/mL [22]. For gentamycin, the MIC values were E. coli ATCC 25922–0.25–1 µg/mL [23]. For tobramycin, the MIC values were E. coli ATCC 25922–0.25–1 µg/mL [23]. The MIC values of the reference strains were required to fall within the acceptable ranges specified in [24], provided that standard assay conditions were maintained.

E. coli MAR17-1350 = assay: MIC, MDR clinical isolate; type: cell-based; conditions: E. coli MAR17-1350, MDR clinical isolate (NDM-5)
Excerpt: as §2, §3, §4, §5, §6

K. pneumoniae APEX-5 = assay: MIC, MDR clinical isolate; type: cell-based; conditions: K. pneumoniae APEX-5, MDR clinical isolate (NDM-16)
Excerpt: as §2, §3, §4, §5, §6

K. pneumoniae MAR14-3395 = assay: MIC, MDR clinical isolate; type: cell-based; conditions: K. pneumoniae MAR14-3395, MDR clinical isolate (NDM-1 + OXA-244)
Excerpt: as §2, §3, §4, §5, §6

K. pneumoniae MAR18-1752 = assay: MIC, MDR clinical isolate; type: cell-based; conditions: K. pneumoniae MAR18-1752, MDR clinical isolate (NDM-1)
Excerpt: as §2, §3, §4, §5, §6

E. coli ATCC 25922 [3] = conditions: E. coli ATCC 25922, reference strain quality control; cited from earlier work
P. aeruginosa ATCC 27853 = assay: MIC, broth microdilution; type: cell-based; conditions: Pseudomonas aeruginosa, ATCC27853, Table 1
Excerpt: as §2, §3, §4, §5, §6

S. aureus ATCC 29213 = assay: MIC, broth microdilution; type: cell-based; conditions: Staphylococcus aureus, ATCC29213, Table 1
Excerpt: as §2, §3, §4, §5, §6

M. smegmatis ATCC 607 = assay: MIC, broth microdilution; type: cell-based, Mycobacterium smegmatis; conditions: Mycolicibacterium smegmatis, ATCC607, Table 1
Excerpt: as §2, §3, §4, §5, §6

[4] = system: E. coli JW5503 with pJC27 β-galactosidase codon 537 reporter; assay: Translation accuracy using β-galactosidase reporters; type: cell-based; conditions: 0.1 μL of 50 mg/mL, 37 °C, 18 h, codon 537 GAC/GGG reporters
Method: To evaluate translation accuracy in the presence of antibiotics, E. coli JW5503 (kanamycin resistance cassette removed as per) was transformed with pJC27 plasmids. […] The synthesis of active β-galactosidase depends on translation errors occurring (when codons GAC and GGG are read as GAA). Petri dishes (9 cm) containing 20 mL of solid LB agar (1.5%), supplemented with chloramphenicol (11.3 μg/mL) and X-Gal (80 μg/mL), were prepared. A secondary soft-agar layer comprising 3.5 mL of LB agar (0.6%) supplemented with 11.3 μg/mL chloramphenicol and 0.5 mL of liquid culture (A600~1.0) was added and allowed to solidify. Antibiotics were applied to the plates in 0.1 μL aliquots at a concentration of 50 mg/mL for tobramycin, streptomycin, kanamycin, and apramycin, and for 5a, 5b, 8a, and 8b. The plates were then incubated at 37 °C for 18 h. […] The results were documented using a Samsung Galaxy Tab A71 camera.

[5] = system: HEK293T human embryonic kidney cell line; assay: Cytotoxicity, MTT test; type: cell-based; conditions: HEK-293T, 72 h, 2-250 µg/mL, read-out: IC50, viability of HEK293T cells
Method: The MTT test was performed in order to evaluate the effect of the compounds on eukaryotic cells’ survivability. Compounds 5a,b, 8a,b, and apramycin, as the reference drug, were tested on HEK293T human embryonic kidney cell line (ATCC). Compounds 5a,b, 8a,b, and apramycin were prepared as water solutions with a 50 mg/mL concentration. The HEK293T cell line was cultivated in DMEM/F-12 medium (Paneco LLC, Moscow, Russia) containing 10% FBS, 50 µg/mL penicillin, and 50 µg/mL streptomycin (Thermo Fisher Scientific, USA) at 37 °C in 5% CO2. Triplicates on 96-well plates were used, and 2500 HEK293T cells were seeded in 140 µL of DMEM/F-12 medium in each well during day one. The next day, compounds in twofold successive dilutions were added to these plates (concentrations in wells ranged between 2 and 250 µg/mL for 5a, 5b, and 8a, 8b). Plates were incubated for 72 h at 37 °C in 5% CO2. Afterwards, 0.5 mg/mL of the MTT reagent (Paneco LLC, Moscow, Russia) was added to each well. After 2 h of incubation, the media with MTT was replaced with 140 µL of DMSO, and all plates were placed on a shaker for 10 min for formazan to dissolve. Finally, the absorbance at a 555 nm wavelength was measured on all plates via the plate reader Victor X5 (PerkinElmer, Waltham, MA, USA). The data were then normalized, and dose–response curves and IC50 were calculated by means of GraphPad Prism version 8.0.2. (GraphPad Software, Inc., San Diego, CA, USA).

[6] = Escherichia coli, MAR171350, read-out: MIC
[7] = Klebsiella pneumoniae, APEX5, read-out: MIC
[8] = Klebsiella pneumoniae, MAR143395, read-out: MIC
[9] = Klebsiella pneumoniae, MAR181752, read-out: MIC

[H]/N=C(/N)N[C@H]1[C@H](O)[C@@H](O)[C@H](O[C@@H]2O[C@@H](C)[C@](O)(C=O)[C@H]2O[C@@H]2O[C@@H](CO)[C@H](O)[C@@H](O)[C@@H]2NC)[C@@H](N/C(N)=N\[H])[C@@H]1O [Streptomycin, streptomycin, reference compound]
MIC (E. coli JW5503 kanS; Escherichia coli, JW5503KANS): 4 µg/mL (≈ 6.88 µM) | MIC ([1]; Escherichia coli): 8 µg/mL (≈ 13.8 µM) | MIC (E. coli JW5503 KanR; Escherichia coli, JW5503KANR): 4 µg/mL (≈ 6.88 µM) | MIC (E. coli JW5503 SmR; Escherichia coli, JW5503SMR): > 256 µg/mL | MIC (E. coli JW5503 ApmR; Escherichia coli, JW5503APMR): 4 µg/mL (≈ 6.88 µM)

kanamycin A [reference compound]
MIC (E. coli ATCC 25922 [2]; Table 2): 2 µg/mL | MIC (E. coli MAR17-1350): >128 µg/mL | MIC (K. pneumoniae APEX-5): >128 µg/mL | MIC (K. pneumoniae MAR14-3395): >128 µg/mL | MIC (K. pneumoniae MAR18-1752): >128 µg/mL | MIC (E. coli JW5503 kanS; E. coli JW5503 kanS (parent strain)): 4 µg/mL | MIC ([1]; E. coli JW5503 EF-G P610T (fusA mutant)): 64 µg/mL | MIC (E. coli JW5503 KanR; E. coli JW5503 KanR, APH(3′)-II on plasmid): >256 µg/mL | MIC (E. coli JW5503 SmR; E. coli JW5503 SmR, ANT(3″) on plasmid): 8 µg/mL | MIC (E. coli JW5503 ApmR; E. coli JW5503 ApmR, AAC(3)-IV on plasmid): 32 µg/mL | MIC, control antibiotic range (E. coli ATCC 25922 [3]): 1 to 4 µg/mL

NC[C@H]1O[C@H](O[C@H]2[C@H](O)[C@@H](O[C@H]3O[C@H](CO)[C@@H](O)[C@H](N)[C@H]3O)[C@H](N)C[C@@H]2N)[C@H](N)C[C@@H]1O [Tobramycin, tobramycin, reference compound]
MIC (E. coli ATCC 25922 [2]; Escherichia coli, ATCC25922, Table 2, read-out: MIC): 0.5 µg/mL (≈ 1.07 µM) | MIC (E. coli MAR17-1350; [6]): > 128 µg/mL | MIC (K. pneumoniae APEX-5; [7]): 32 µg/mL (≈ 68.4 µM) | MIC (K. pneumoniae MAR14-3395; [8]): > 128 µg/mL | MIC (K. pneumoniae MAR18-1752; [9]): > 128 µg/mL | MIC (E. coli JW5503 kanS; Escherichia coli, JW5503KANS): 2 µg/mL (≈ 4.28 µM) | MIC ([1]; Escherichia coli): 16 µg/mL (≈ 34.2 µM) | MIC (E. coli JW5503 KanR; Escherichia coli, JW5503KANR): 2 µg/mL (≈ 4.28 µM) | MIC (E. coli JW5503 SmR; Escherichia coli, JW5503SMR): 4 µg/mL (≈ 8.56 µM) | MIC (E. coli JW5503 ApmR; Escherichia coli, JW5503APMR): > 256 µg/mL | MIC, control antibiotic range (E. coli ATCC 25922 [3]): 0.25 to 1 µg/mL

CN[C@@H]1[C@@H](O[C@H]2O[C@H](CO)[C@@H](N)[C@H](O)[C@H]2O)OC2C[C@@H](N)[C@@H](O[C@H]3[C@H](O)[C@@H](O)[C@H](N)C[C@@H]3N)OC2[C@@H]1O (stereo partly drawn) [Apramycin (1), apramycin]
MIC (P. aeruginosa ATCC 27853): 2 µg/mL (≈ 3.71 µM) | MIC (S. aureus ATCC 29213): 1 µg/mL (≈ 1.85 µM) | MIC (E. coli ATCC 25922 [2]; Escherichia coli, ATCC25922, Table 1, read-out: MIC): 1 µg/mL (≈ 1.85 µM) | MIC (M. smegmatis ATCC 607): 0.125 µg/mL (≈ 0.232 µM) | MIC (E. coli MAR17-1350; [6]): 4 µg/mL (≈ 7.41 µM) | MIC (K. pneumoniae APEX-5; [7]): 1 µg/mL (≈ 1.85 µM) | MIC (K. pneumoniae MAR14-3395; [8]): 1 µg/mL | MIC (K. pneumoniae MAR18-1752; [9]): 1 µg/mL (≈ 1.85 µM) | MIC (E. coli JW5503 kanS; Escherichia coli, JW5503KANS): 8 µg/mL (≈ 14.8 µM) | MIC ([1]; Escherichia coli): 64 µg/mL (≈ 119 µM) | MIC (E. coli JW5503 KanR; Escherichia coli, JW5503KANR): 4 µg/mL (≈ 7.41 µM) | MIC (E. coli JW5503 SmR; Escherichia coli, JW5503SMR): 8 µg/mL (≈ 14.8 µM) | MIC (E. coli JW5503 ApmR; Escherichia coli, JW5503APMR): > 256 µg/mL | induction of translation errors (blue staining at edge of inhibition zone) [4]: blue staining | IC50 [5]: > 250 µg/mL

— paper PMC12736951, “Design, Synthesis, and Biological Evaluation of 6″-Modified Apramycin Derivatives to Overcome Aminoglycoside Resistance” (Pharmaceutics, 2025)
